The values that follow come from article PMC6366420, “Design and synthesis of 4-piperazinyl quinoline derived urea/thioureas for anti-breast cancer activity by a hybrid pharmacophore approach” (Journal of Enzyme Inhibition and Medicinal Chemistry, 2019).

Broadly, the GI50 is the concentration giving 50% growth inhibition. The melting point is the temperature, or range, at which the solid turns liquid.

Series [1] deals with MDA-MB231. The series is described as follows: SRB antiproliferative assay, MDA-MB231. Particulars: Homo sapiens, MDA-MB-231, 48 h, SRB, 48 h incubation, MDA-MB231 triple-negative breast cancer cells; read-out: GI50 MDA-MB231. In kind it is cell-based, human. The method, then:
(§1) The human breast cancer cell lines MDA-MB468, MDA-MB231 and MCF-7 were purchased from ATCC and maintained in RPMI 1640 medium supplemented with 10% fetal bovine serum (Hyclone, Logan UT) and 2 mM L-glutamine. MCF10A and 184B5 immortalised breast cells were purchased from ATCC and maintained in mammary epithelial basal medium supplemented with an MEGM mammary epithelial singlequot kit (Cambrex). Cells were grown at 37 °C with 5% CO2, 95% air under the humidified conditions. Cell line authentication was carried out by Genetica DNA Laboratories (Burlington, NC) using a short tandem repeat profiling method (March 2015; July 2015; September 2016).
(§2) Cell cytotoxic effects were determined by a SRB-based protocol[2]^,[25].
(§3) The newly synthesised 4-piperazinylquinoline compounds (5–30) were evaluated for their antiproliferative effects using three breast cancer cell lines, for which the compounds were diluted to achieve seven different concentrations ranging from […]. Followed by 48 h incubation with the compound, cells were treated with sulforhodamine B (SRB) to measure their growth/viability (% of the untreated control) by spectrophotometer. The total cellular macromolecules levels known to accurately reflect by UV reading of SRB staining. […] The reference compounds CQ and cisplatin were included for the comparison.
(In SRB staining, fixed cells bind dye roughly in proportion to their protein.)

Series [2] relates to MDA-MB468. The series is described as follows: SRB antiproliferative assay, MDA-MB468. In kind it is cell-based, human. To be noted: Homo sapiens, MDA-MB-468, 48 h, SRB, 48 h incubation, MDA-MB468 breast cancer cells; read-out: GI50 MDA-MB468. The protocol: as §1, §2, §3
Series [3] has as its system MCF7. The series is described as follows: SRB antiproliferative assay, MCF7. In kind it is cell-based, human. Particulars: Homo sapiens; SRB, 48 h incubation, MCF7 breast cancer cells; read-out: GI50 MCF7. The protocol: as §1, §2, §3
In series [4] the test system is 184B5. The series is described as follows: SRB antiproliferative assay, 184B5 non-cancer breast cells. In kind it is cell-based, human. Particulars: Homo sapiens; SRB, 48 h incubation, 184B5 non-cancer immortalised breast cells; read-out: GI50 184B5. The method, then: as §1, §2, §3
(§4) We further assessed their antiproliferative effects on two non-cancer immortalised cell lines (184B5 and MCF10A). […] The antiproliferative effects of compound 23 on cancer cells are thus 7-fold (MDA-MB468 vs MCF10A) to 11-fold (MDA-MB231 vs 184B5) higher than matching non-cancer breast cells, which may indicate that compound 23 could potentially be safer than other compounds. Therefore, we examined it further to gain insights into its molecular mechanism of action.

For series [5], the system named is MCF10A. The series is described as follows: SRB antiproliferative assay, MCF10A non-cancer breast cells. Format: cell-based, human. To be noted: Homo sapiens, MCF-10A; SRB, 48 h incubation, MCF10A non-cancer immortalised breast cells; read-out: GI50 MCF10A. The method, then:
as §1, §2, §3, §4

Series [6] relates to breast cancer and non-cancer breast cell lines. The experiment in a line: SRB antiproliferative comparison of breast cancer and non-cancer breast cell lines. In kind it is cell-based, human. Particulars: for antigrowth effect against cancer versus non-cancer cells (in words): three breast cancer lines vs 184B5 and MCF10A. The protocol:
as §1, §2, §3, §4

Structures are written as SMILES.

Consider `Cc1cccc(C)c1NC(=S)N1CCN(c2ccnc3cc(Cl)ccc23)CC1` [Compound 18, 4-(7-Chloro-quinolin-4-yl)-piperazine-1-carbothioic acid (2,6-dimethyl-phenyl)-amide], for which the melting point lay in the range of 138 to 139 °C. Further, the GI50 in series [1] amounted to 9.6 ± 0.5 µM. The GI50 in series [2] amounted to 7.8 ± 0.8 µM. For the same compound, in series [3], the GI50 came to 7.3 ± 0.5 µM. In addition, in series [4], the GI50 stood at 16.7 ± 1 µM. Moreover, the GI50 in series [5] turned out to be 52.3 ± 2.9 µM. The “antigrowth effect against cancer versus non-cancer cells (in words)” value in series [6] is listed as “much stronger activities against cancer than non-cancer cells”.
In turn, `Cc1ccc(C)c(NC(=O)N2CCN(c3ccnc4cc(C(F)(F)F)ccc34)CC2)c1` [Compound 12, 4-(7-Trifluoromethyl-quinolin-4-yl)-piperazine-1-carboxylic acid (2,5-dimethyl-phenyl)-amide] had a melting point of 108 to 109 °C. For the same compound, in series [1], the GI50 was 39.6 ± 2.1 µM. Moreover, the GI50 in series [2] was determined as 21.7 ± 1 µM. In addition, the GI50 in series [3] was determined as 22.5 ± 1.4 µM. Also, in series [4], the GI50 worked out at 7.6 ± 0.7 µM. For the same compound, the GI50 in series [5] turned out to be 8.8 ± 0.9 µM. The “antigrowth effect against cancer versus non-cancer cells (in words)” value in series [6] was “higher activity against non-cancer cells than cancer cells”.
Turning to `O=C(Nc1cccc2ccccc12)N1CCN(c2ccnc3cc(C(F)(F)F)ccc23)CC1` [Compound 15, 4-(7-Trifluoromethyl-quinolin-4-yl)-piperazine-1-carboxylic acid naphthalen-1-ylamide], the melting point fell in the range of 127 to 128 °C. Further, in series [1], the GI50 worked out at 17.8 ± 1 µM. Besides, the GI50 in series [2] turned out to be 9.6 ± 0.9 µM. Moreover, in series [3], the GI50 was 7.5 ± 0.6 µM. Moreover, the GI50 in series [4] stood at 27.9 ± 1.7 µM. In addition, the GI50 in series [5] amounted to 11.1 ± 0.9 µM. For the same compound, in series [6], the “antigrowth effect against cancer versus non-cancer cells (in words)” value is “comparable against cancer and non-cancer cells”.
With `O=C(Nc1c(Cl)cc(Cl)cc1Cl)N1CCN(c2ccnc3cc(C(F)(F)F)ccc23)CC1` [Compound 14, 4-(7-Trifluoromethyl-quinolin-4-yl)-piperazine-1-carboxylic acid (2,4,6-trichloro-phenyl)-amide], the melting point was in the range of 142 to 143 °C. For the same compound, in series [1], the GI50 worked out at 21.1 ± 1.3 µM. Also, the GI50 in series [2] is 22.5 ± 0.2 µM. Moreover, in series [3], the GI50 was 12.6 ± 1.2 µM. In series [4], the concentration for 50% growth inhibition (GI50) turned out to be 33.2 ± 2.1 µM. Besides, the GI50 in series [5] is 17.4 ± 0.5 µM. Moreover, the “antigrowth effect against cancer versus non-cancer cells (in words)” value in series [6] was “comparable against cancer and non-cancer cells”.
Regarding `O=C(NC1CCCCC1)N1CCN(c2ccnc3cc(Cl)ccc23)CC1` [Compound 10, 4-(7-Chloro-quinolin-4-yl)-piperazine-1-carboxylic acid cyclohexylamide], the melting point fell in the range of 112 to 113 °C. The GI50 in series [1] stood at 20.8 ± 1.3 µM. Further, the GI50 in series [2] stood at 10.9 ± 0.8 µM. Moreover, in series [3], the GI50 is 6 ± 0.5 µM. The GI50 in series [4] is 16.3 ± 1 µM. Further, the GI50 in series [5] is 15.7 ± 1.3 µM. The “antigrowth effect against cancer versus non-cancer cells (in words)” value in series [6] was “comparable against cancer and non-cancer cells”.
As for `O=C(Nc1cccc2ccccc12)N1CCN(c2ccnc3cc(Cl)ccc23)CC1` [Compound 9, 4-(7-Chloro-quinolin-4-yl)-piperazine-1-carboxylic acid naphthalen-1-ylamide], the melting point is 138 to 139 °C. Moreover, the GI50 in series [1] turned out to be 9.1 ± 1 µM. For the same compound, the GI50 in series [2] is 7.1 µM. The GI50 in series [3] was 9.4 ± 0.8 µM. Moreover, in series [4], the GI50 turned out to be 21.8 ± 1 µM. Moreover, the GI50 in series [5] is 21.8 ± 1 µM. For the same compound, the “higher activity than the reference compounds cisplatin and CQ” value in series [6] (breast cancer cell lines, GI50 comparison) is on record as 4-8 fold. Further, the “antigrowth effect against cancer versus non-cancer cells (in words)” value in series [6] is “much stronger activities against cancer than non-cancer cells”.
Take `S=C(Nc1cccc2ccccc12)N1CCN(c2ccnc3cc(Cl)ccc23)CC1` [Compound 22, 4-(7-Chloro-quinolin-4-yl)-piperazine-1-carbothioic acid naphthalen-1-ylamide]: the melting point lay within 107 to 108 °C. Also, the GI50 in series [1] stood at 19.8 ± 1.1 µM. The GI50 in series [2] was 10 ± 0.9 µM. Besides, the GI50 in series [3] was 30.1 ± 1.2 µM. In series [4], the GI50 worked out at 17.8 ± 0.6 µM. Moreover, the concentration for 50% growth inhibition (GI50) in series [5] worked out at 13.3 ± 1 µM. Moreover, in series [6], the “antigrowth effect against cancer versus non-cancer cells (in words)” value was “comparable against cancer and non-cancer cells”.
In turn, `O=C(NC1CCCCC1)N1CCN(c2ccnc3cc(C(F)(F)F)ccc23)CC1` [Compound 16, 4-(7-Trifluoromethyl-quinolin-4-yl)-piperazine-1-carboxylic acid cyclohexylamide] returned a melting point of 132 to 133 °C. For the same compound, the GI50 in series [1] was 20.8 ± 2.3 µM. Besides, the GI50 in series [2] came to 12.7 ± 0.5 µM. Also, the GI50 in series [3] turned out to be 4.9 ± 0.3 µM. For the same compound, in series [4], the GI50 worked out at 20.8 ± 1.4 µM. Further, the GI50 in series [5] stood at 20.9 ± 1 µM. Also, the “antigrowth effect against cancer versus non-cancer cells (in words)” value in series [6] was “comparable against cancer and non-cancer cells”.
Take `S=C(Nc1c(Cl)cc(Cl)cc1Cl)N1CCN(c2ccnc3cc(Cl)ccc23)CC1` [Compound 21, 4-(7-Chloro-quinolin-4-yl)-piperazine-1-carbothioic acid (2,4,6-trichloro-phenyl)-amide]: the melting point is 132 to 133 °C. Moreover, the concentration for 50% growth inhibition (GI50) in series [1] was 7.7 ± 0.5 µM. Further, in series [2], the GI50 is 5.1 ± 0.2 µM. Further, the 50% growth inhibitory concentration (GI50) in series [3] was 4 ± 0.3 µM. Further, the GI50 in series [4] was found to be 4.7 ± 0.3 µM. Further, the GI50 in series [5] stood at 6.8 ± 0.6 µM. The “antigrowth effect against cancer versus non-cancer cells (in words)” value in series [6] is “comparable against cancer and non-cancer cells”.
`S=C(Nc1ccc(Cl)cc1)N1CCN(c2ccnc3cc(Cl)ccc23)CC1` [Compound 20, 4-(7-Chloro-quinolin-4-yl)-piperazine-1-carbothioic acid (4-chloro-phenyl)-amide] came in with a melting point of 145 to 146 °C. The GI50 in series [1] stood at 22.6 ± 1.4 µM. For the same compound, the GI50 in series [2] is 33.1 ± 1.5 µM. For the same compound, in series [3], the GI50 came to 20.4 ± 0.9 µM. Moreover, the GI50 in series [4] came to 14.4 ± 0.6 µM. Further, the 50% growth inhibitory concentration (GI50) in series [5] stood at 8.8 ± 0.7 µM. Further, the “antigrowth effect against cancer versus non-cancer cells (in words)” value in series [6] is recorded as “higher activity against non-cancer cells than cancer cells”.
`O=C(Nc1ccccc1)N1CCN(c2ccnc3cc(C(F)(F)F)ccc23)CC1` [Compound 11, 4-(7-Trifluoromethyl-quinolin-4-yl)-piperazine-1-carboxylic acid phenylamide]: the melting point lay within 146 to 147 °C. Also, the GI50 in series [1] came out at 20.6 ± 1.4 µM. In addition, the concentration for 50% growth inhibition (GI50) in series [2] amounted to 57.6 ± 3.2 µM. In addition, in series [3], the GI50 was determined as 11 ± 0.6 µM. Moreover, the concentration for 50% growth inhibition (GI50) in series [4] was 12.2 ± 1.3 µM. In addition, the GI50 in series [5] came to 21.1 ± 1.6 µM. Moreover, the “antigrowth effect against cancer versus non-cancer cells (in words)” value in series [6] was “comparable against cancer and non-cancer cells”.
`O=C(Nc1c(Cl)cc(Cl)cc1Cl)N1CCN(c2ccnc3cc(Cl)ccc23)CC1` [Compound 8, 4-(7-Chloro-quinolin-4-yl)-piperazine-1-carboxylic acid (2,4,6-trichloro-phenyl)-amide] had a melting point of 168 to 169 °C. The GI50 in series [1] is 29.1 ± 1.7 µM. For the same compound, the 50% growth inhibitory concentration (GI50) in series [2] worked out at 30.4 ± 2 µM. In addition, in series [3], the GI50 is 23.7 ± 2.4 µM. For the same compound, the concentration for 50% growth inhibition (GI50) in series [4] was 22.3 ± 1.7 µM. The GI50 in series [5] stood at 23.7 ± 1 µM. Moreover, the “antigrowth effect against cancer versus non-cancer cells (in words)” value in series [6] was “comparable against cancer and non-cancer cells”.
The compound `S=C(Nc1ccccc1)N1CCN(c2ccnc3cc(Cl)ccc23)CC1` [Compound 17, 4-(7-Chloro-quinolin-4-yl)-piperazine-1-carbothioic acid phenylamide] returned a melting point of 171 to 172 °C. For the same compound, the GI50 in series [1] turned out to be 4.8 ± 0.2 µM. For the same compound, in series [2], the GI50 was 11.8 ± 0.6 µM. Also, in series [3], the 50% growth inhibitory concentration (GI50) was 4.9 ± 0.3 µM. For the same compound, the GI50 in series [4] was 19.2 ± 1.6 µM. For the same compound, in series [5], the GI50 worked out at 13.9 ± 1.3 µM. In addition, the “antigrowth effect against cancer versus non-cancer cells (in words)” value in series [6] is “much stronger activities against cancer than non-cancer cells”.
